ChEMBL document CHEMBL1221236, “Discovery of a factor Xa inhibitor (3R,4R)-1-(2,2-difluoro-ethyl)-pyrrolidine-3,4-dicarboxylic acid 3-[(5-chloro-pyridin-2-yl)-amide] 4-[[2-fluoro-4-(2-oxo-2H-pyridin-1-yl)-phenyl]-amide] as a clinical candidate” (Bioorg Med Chem Lett, 2010)

Tests used:
Rattus norvegicus = assay: Dose normalized AUC in po dosed rat; assay type: ADME, organism-based; settings: in vivo
[1] = Volume of distribution at steady state in rat; assay type: ADME, organism-based; settings: in vivo, read-out: Vdss
Phospholipidosis = assay: In vitro phospholipidosis; assay type: ADME, cell-based; settings: human, hepg2
[2] = Dissociation constant, pKa of the compound; assay type: physicochemical
[3] = Volume of distribution at steady state in cynomolgus monkey; assay type: ADME, organism-based, Macaca fascicularis; settings: in vivo, read-out: Vdss
[4] = Half life in cynomolgus monkey; assay type: ADME, organism-based, Macaca fascicularis; settings: in vivo
[5] = Half life in po dosed rat; assay type: ADME, organism-based; settings: in vivo
[6] = Oral bioavailability in cynomolgus monkey; assay type: ADME, organism-based, Macaca fascicularis; settings: in vivo
[7] = Clearance in cynomolgus monkey; assay type: ADME, organism-based, Macaca fascicularis; settings: in vivo
[8] = Lipophilicity, log D of the compound at pH 7.4; assay type: physicochemical; settings: buffer
Cynomolgus monkey = assay: Dose normalized AUC in po dosed cynomolgus monkey; assay type: ADME, organism-based, Macaca fascicularis; settings: in vivo
[9] = Clearance in rat; assay type: ADME, organism-based; settings: in vivo
[10] = Oral bioavailability in rat; assay type: ADME, organism-based; settings: in vivo
[11] = Permeability of the compound by PAMPA; assay type: ADME; settings: read-out: permeability

**Q.** Which AUC (Rattus norvegicus) does the source give for `O=C(Nc1ccc(Cl)cn1)[C@H]1CN(CC(F)F)C[C@@H]1C(=O)Nc1ccc(-n2ccccc2=O)cc1F` here?
**A.** Its AUC is 10000 ng·h/mL.

**Q.** And the Vd [1]?
**A.** The Vd was 0.18 L/kg.

**Q.** What about the Phospholipidosis (Phospholipidosis) of the same compound?
**A.** Its Phospholipidosis is “Not Active”.

**Q.** And the pKa [2]?
**A.** Its pKa is 4.79.

**Q.** What about the Vd [3] of the same compound?
**A.** The Vd was 0.54 L/kg.

**Q.** What about the half-life [4] of the same compound?
**A.** The half-life was 6.3 h.

**Q.** What about the half-life [5] of the same compound?
**A.** Its half-life is 1.3 h.

**Q.** And the bioavailability [6]?
**A.** Its bioavailability is 65%.

**Q.** What about the clearance [7] of the same compound?
**A.** The clearance was 6.4 mL/min/kg.

**Q.** What about the logD [8] of the same compound?
**A.** Its logD is 2.2.

**Q.** What about the AUC (Cynomolgus monkey) of the same compound?
**A.** Its AUC is 1700 ng·h/mL.

**Q.** And the clearance [9]?
**A.** The clearance was 2.1 mL/min/kg.

**Q.** What about the bioavailability [10] of the same compound?
**A.** The bioavailability was 100%.

**Q.** For `CC(=O)N1C[C@H](C(=O)Nc2ccc(Cl)cc2)[C@@H](C(=O)Nc2ccc(-n3ccccc3=O)cc2F)C1`, which logD [8] is on record?
**A.** The logD was 1.8.

**Q.** With `CS(=O)(=O)N1C[C@H](C(=O)Nc2ccc3[nH]ccc3c2)[C@@H](C(=O)Nc2ccc(-n3ccccc3=O)cc2F)C1` as the compound, how does the logD [8] read?
**A.** The logD was 1.07.

**Q.** For `CC(C)S(=O)(=O)N1C[C@H](C(=O)Nc2ccc(Cl)cc2)[C@@H](C(=O)Nc2ccc(-n3ccccc3=O)cc2F)C1`, which logD [8] is on record?
**A.** Its logD is 2.81.

**Q.** For `COc1ccc(NC(=O)[C@H]2CN(S(C)(=O)=O)C[C@@H]2C(=O)Nc2ccc(-n3ccccc3=O)cc2F)cc1F`, which logD [8] is on record?
**A.** The logD was 0.56.

**Q.** For `CS(=O)(=O)N1C[C@H](C(=O)Nc2ccc(Cl)cc2)[C@@H](C(=O)Nc2ccc(-n3ccccc3=O)cc2F)C1`, which logD [8] is on record?
**A.** The logD was 2.17.

**Q.** Which AUC (Rattus norvegicus) does the source give for `COC(=O)N1C[C@H](C(=O)Nc2ccc(Cl)cn2)[C@@H](C(=O)Nc2ccc(-n3ccccc3=O)cc2F)C1` here?
**A.** Its AUC is 2300 ng·h/mL.

**Q.** What about the Vd [1] of the same compound?
**A.** Its Vd is 0.42 L/kg.

**Q.** What about the Phospholipidosis (Phospholipidosis) of the same compound?
**A.** Its Phospholipidosis is “Not Active”.

**Q.** What about the pKa [2] of the same compound?
**A.** The pKa was 2.75.

**Q.** What about the Vd [3] of the same compound?
**A.** The Vd was 0.44 L/kg.

**Q.** What about the half-life [4] of the same compound?
**A.** Its half-life is 5 h.

**Q.** What about the half-life [5] of the same compound?
**A.** Its half-life is 1.5 h.

**Q.** What about the bioavailability [6] of the same compound?
**A.** Its bioavailability is 64%.

**Q.** And the clearance [7]?
**A.** The clearance was 1.8 mL/min/kg.

**Q.** What about the logD [8] of the same compound?
**A.** The logD was 2.02.

**Q.** And the AUC (Cynomolgus monkey)?
**A.** The AUC was 6700 ng·h/mL.

**Q.** What about the clearance [9] of the same compound?
**A.** Its clearance is 7.3 mL/min/kg.

**Q.** And the bioavailability [10]?
**A.** The bioavailability was 100%.

**Q.** Which AUC (Rattus norvegicus) does the source give for `CC(C)N1C[C@H](C(=O)Nc2ccc(Cl)cn2)[C@@H](C(=O)Nc2ccc(-n3ccccc3=O)cc2F)C1` here?
**A.** The AUC was 900 ng·h/mL.

**Q.** And the Vd [1]?
**A.** Its Vd is 0.47 L/kg.

**Q.** What about the Phospholipidosis (Phospholipidosis) of the same compound?
**A.** The Phospholipidosis was “Active”.

**Q.** What about the pKa [2] of the same compound?
**A.** The pKa was 7.55.

**Q.** What about the Vd [3] of the same compound?
**A.** The Vd was 1.6 L/kg.

**Q.** And the half-life [4]?
**A.** The half-life was 4.7 h.

**Q.** What about the half-life [5] of the same compound?
**A.** The half-life was 2.9 h.

**Q.** And the bioavailability [6]?
**A.** Its bioavailability is 80%.

**Q.** And the clearance [7]?
**A.** The clearance was 17 mL/min/kg.

**Q.** What about the logD [8] of the same compound?
**A.** Its logD is 1.86.

**Q.** And the AUC (Cynomolgus monkey)?
**A.** Its AUC is 820 ng·h/mL.

**Q.** And the clearance [9]?
**A.** Its clearance is 4.2 mL/min/kg.

**Q.** And the bioavailability [10]?
**A.** Its bioavailability is 39%.

**Q.** For `CS(=O)(=O)N1C[C@H](C(=O)Nc2ccc(OC(F)(F)F)cc2)[C@@H](C(=O)Nc2ccc(-n3ccccc3=O)cc2F)C1`, which logD [8] is on record?
**A.** The logD was 2.36.

**Q.** Which logD [8] does the source give for `CS(=O)(=O)N1C[C@H](C(=O)Nc2ccc(Cl)cn2)[C@@H](C(=O)Nc2ccc(-n3ccccc3=O)cc2F)C1` here?
**A.** The logD was 1.46.

**Q.** For `COc1ccc(NC(=O)[C@H]2CN(S(C)(=O)=O)C[C@@H]2C(=O)Nc2ccc(-n3ccccc3=O)cc2F)cc1`, which logD [8] is on record?
**A.** Its logD is 1.19.

**Q.** For `CCS(=O)(=O)N1C[C@H](C(=O)Nc2ccc(Cl)cn2)[C@@H](C(=O)Nc2ccc(-n3ccccc3=O)cc2F)C1`, which AUC (Rattus norvegicus) is on record?
**A.** Its AUC is 3300 ng·h/mL.

**Q.** What about the Vd [1] of the same compound?
**A.** The Vd was 0.04 L/kg.

**Q.** And the Phospholipidosis (Phospholipidosis)?
**A.** Its Phospholipidosis is “Not Active”.

**Q.** And the pKa [2]?
**A.** Its pKa is 2.99.

**Q.** What about the Vd [3] of the same compound?
**A.** The Vd was 0.46 L/kg.

**Q.** What about the half-life [4] of the same compound?
**A.** The half-life was 1.9 h.

**Q.** What about the half-life [5] of the same compound?
**A.** Its half-life is 1.1 h.

**Q.** What about the bioavailability [6] of the same compound?
**A.** Its bioavailability is 9%.

**Q.** What about the clearance [7] of the same compound?
**A.** Its clearance is 5.5 mL/min/kg.

**Q.** And the logD [8]?
**A.** Its logD is 1.77.

**Q.** What about the AUC (Cynomolgus monkey) of the same compound?
**A.** Its AUC is 230 ng·h/mL.

**Q.** And the clearance [9]?
**A.** Its clearance is 1.3 mL/min/kg.

**Q.** What about the bioavailability [10] of the same compound?
**A.** Its bioavailability is 24%.

**Q.** Which logD [8] does the source give for `O=C(Nc1ccc(Cl)cc1)[C@H]1CN(S(=O)(=O)CC(F)(F)F)C[C@@H]1C(=O)Nc1ccc(-n2ccccc2=O)cc1F` here?
**A.** Its logD is 2.68.

**Q.** With `O=C(Nc1ccc(Cl)cn1)[C@H]1CN(CC(F)(F)F)C[C@@H]1C(=O)Nc1ccc(-n2ccccc2=O)cc1F` as the compound, how does the logD [8] read?
**A.** The logD was 2.62.

**Q.** For `O=C(Nc1ccc(Cl)cn1)[C@H]1CNC[C@@H]1C(=O)Nc1ccc(-n2ccccc2=O)cc1F`, which logD [8] is on record?
**A.** The logD was 0.63.

**Q.** For `CCOC(=O)N1C[C@H](C(=O)Nc2ccc(Cl)cc2)[C@@H](C(=O)Nc2ccc(-n3ccccc3=O)cc2F)C1`, which logD [8] is on record?
**A.** Its logD is 2.57.

**Q.** Which logD [8] does the source give for `CS(=O)(=O)N1C[C@H](C(=O)Nc2ccc(Cl)c(F)c2)[C@@H](C(=O)Nc2ccc(-n3ccccc3=O)cc2F)C1` here?
**A.** Its logD is 2.37.

**Q.** With `O=C(Nc1ccc(Cl)cc1)[C@H]1CN(C(=O)N2CCCC2)C[C@@H]1C(=O)Nc1ccc(-n2ccccc2=O)cc1F` as the compound, how does the logD [8] read?
**A.** Its logD is 2.78.

**Q.** Which logD [8] does the source give for `NS(=O)(=O)N1C[C@H](C(=O)Nc2ccc(Cl)cc2)[C@@H](C(=O)Nc2ccc(-n3ccccc3=O)cc2F)C1` here?
**A.** The logD was 1.83.

**Q.** Which logD [8] does the source give for `COC(=O)N1C[C@H](C(=O)Nc2ccc(Cl)cc2)[C@@H](C(=O)Nc2ccc(-n3ccccc3=O)cc2F)C1` here?
**A.** Its logD is 2.43.

**Q.** For `O=C(Nc1ccc(Cl)cc1)[C@H]1CN(CC(F)F)C[C@@H]1C(=O)Nc1ccc(-n2ccccc2=O)cc1F`, which logD [8] is on record?
**A.** The logD was 2.69.

**Q.** With `CCS(=O)(=O)N1C[C@H](C(=O)Nc2ccc(Cl)cc2)[C@@H](C(=O)Nc2ccc(-n3ccccc3=O)cc2F)C1` as the compound, how does the logD [8] read?
**A.** Its logD is 2.44.

**Q.** Which logD [8] does the source give for `CCCOC(=O)N1C[C@H](C(=O)Nc2ccc(Cl)cc2)[C@@H](C(=O)Nc2ccc(-n3ccccc3=O)cc2F)C1` here?
**A.** Its logD is 3.06.

**Q.** Which Papp [11] does the source give for `CS(=O)(=O)N1C[C@H](C(=O)Nc2ccc(Cl)cc2)[C@@H](C(=O)Nc2ccc(N3CCOCC3=O)cc2)C1` here?
**A.** The Papp was 0.46 ×10⁻⁶ cm/s.

**Q.** With `CCCS(=O)(=O)N1C[C@H](C(=O)Nc2ccc(Cl)cc2)[C@@H](C(=O)Nc2ccc(-n3ccccc3=O)cc2F)C1` as the compound, how does the logD [8] read?
**A.** The logD was 2.94.

**Q.** With `O=C(Nc1ccc(Cl)cc1)[C@H]1CN(CCO)C[C@@H]1C(=O)Nc1ccc(-n2ccccc2=O)cc1F` as the compound, how does the logD [8] read?
**A.** Its logD is 1.8.

**Q.** Which logD [8] does the source give for `CN(C)S(=O)(=O)N1C[C@H](C(=O)Nc2ccc(Cl)cc2)[C@@H](C(=O)Nc2ccc(-n3ccccc3=O)cc2F)C1` here?
**A.** Its logD is 2.62.

**Q.** Which logD [8] does the source give for `COc1ccc(NC(=O)[C@H]2CN(S(C)(=O)=O)C[C@@H]2C(=O)Nc2ccc(-n3ccccc3=O)cc2F)cc1Cl` here?
**A.** Its logD is 1.9.

**Q.** With `O=C(Nc1ccc(Cl)cc1)[C@H]1CN(CC(F)(F)F)C[C@@H]1C(=O)Nc1ccc(-n2ccccc2=O)cc1F` as the compound, how does the logD [8] read?
**A.** The logD was 3.2.

**Q.** With `CS(=O)(=O)N1C[C@H](C(=O)Nc2ccc3[nH]ncc3c2)[C@@H](C(=O)Nc2ccc(-n3ccccc3=O)cc2F)C1` as the compound, how does the logD [8] read?
**A.** Its logD is 0.5.
